The subject of data set [1] is Vesicular stomatitis virus (VSV). Type of data set: cell-based.
Data set [2] in a line: physchem. To be noted: pH 7.
The nature of data set [3]: physchem. To be noted: buffer.
Data set [4] has as its system murine red blood cells (RBCs). The note with it: mouse, in vivo.
For the next data set, the system named is Yersinia enterocolitica. The class given is cell-based.
The subject of the next data set is cell-free HIV-IIIB. Type of data set: cell-based. To be noted: for Log Kill / Log Titer: no PIC-1, GSH 30 mM.
Data set [5] deals with Staphylococcus epidermidis. The class given is cell-based.
The subject of the next data set is red blood cell membranes. To be noted: 3 mM Glutathione added to PRBCs. As for the experimental part: The concentration of GSH was calculated based on the absorbance at 412 nm using a Beckman DU20 (Beckman, Irvine, Calif.) single wavelength spectrometer.

Counter-ions that a name gives are not always drawn. Like-named read-outs stand apart in the source and are kept apart here.

Consider `O=S(=O)(O)CCS` [MENSA, mercaptoethanesulfonic acid sodium salt], for which the “Log Kill” value in data set [1] is listed as 2.3 log.
With `O=C(CCNc1c2ccccc2nc2ccccc12)OCCN(CCCl)CCCl` [PIC-1, β-alanine, N-(acridin-9-yl), 2-[bis(2-chloroethyl)amino]ethyl ester], the half-life in “physchem [2]” was found to be 32 min; in “physchem [3]” (pH 2.2) it was 450 min; in the data set “physchem [3]” (pH 6) it was 25 min.
Regarding `O=C(CCNc1c2ccccc2nc2ccccc12)NCCN(CCCl)CCCl` [PIC-2, P-alanine, N-(acridin-9-yl), 2-[bis(2-chloroethyl)amino]ethyl amide], in data set [4], the “RBC survival compared to control” value is reported as “substantially the same as control” and the “recovery or lifespan of treated RBCs compared to label-only controls” value is listed as “No difference”.
Consider `N[C@@H](CS)C(=O)O` [cysteine], for which, in the data set on Yersinia enterocolitica, the “Log Kill” value is given as 0 log and the “Log Titer” value worked out at 7.4 log.
On to `N[C@@H](CCC(=O)N[C@@H](CS)C(=O)NCC(=O)O)C(=O)O` [glutathione], for which the “Log Kill” value in the data set on Yersinia enterocolitica was found to be 0 log; in the data set with cell-free HIV-IIIB (12 hour incubation (sample 4)) it was 0.6 log; in the data set with cell-free HIV-IIIB (no incubation (sample 2)), 0.3 log; in data set [5], 0 log. The “Log Titer” value in the data set with Yersinia enterocolitica is reported as 7.4 log; with cell-free HIV-IIIB (12 hour incubation (sample 4)), 6.4 log; in the data set on cell-free HIV-IIIB (no incubation (sample 2)), 6.9 log; in data set [5], 7.5 log. The compound further gave a reduction of inactivation with Yersinia enterocolitica of 1 to 2 log kill. The “reduction of HIV infectivity” value with cell-free HIV-IIIB (30 mM glutathione alone (samples 2 and 4 compared to samples 1 and 3)) lay within 0.3 to 0.6 logs. Further, the “recovery or lifespan of treated RBCs compared to label-only controls” value in data set [4] was “No difference”. For the same compound, the “Absorption 412 nm Supernatant” value in the data set with red blood cell membranes (Time 0 min) turned out to be 0.33; in the data set on red blood cell membranes (Time 60 min), 0.318; in the data set on red blood cell membranes (Time 120 min), 0.312; in the data set with red blood cell membranes (Time 270 min), 0.306; with red blood cell membranes (Time 1080 min), 0.297; with red blood cell membranes (Time 1440 min), 0.296. Also, the “Absorption 412 nm Total” value in the data set on red blood cell membranes (Time 0 min) is recorded as 0.230; in the data set with red blood cell membranes (Time 60 min), 0.227; in the data set with red blood cell membranes (Time 120 min), 0.231; in the data set on red blood cell membranes (Time 270 min) it was 0.213; in the data set on red blood cell membranes (Time 1080 min) it was 0.227; with red blood cell membranes (Time 1440 min) it was 0.220. Besides, the “GSH Concentration Supernatant” value with red blood cell membranes (Time 0 min) was found to be 3.071 mM; in the data set with red blood cell membranes (Time 60 min), 2.96 mM; with red blood cell membranes (Time 120 min), 2.90 mM; in the data set on red blood cell membranes (Time 270 min), 2.85 mM; with red blood cell membranes (Time 1080 min) it was 2.77 mM; in the data set on red blood cell membranes (Time 1440 min), 2.76 mM. In addition, the “GSH Concentration Total” value in the data set with red blood cell membranes (Time 0 min) is 5.286 mM; in the data set with red blood cell membranes (Time 60 min), 5.217 mM; with red blood cell membranes (Time 120 min) it was 5.308 mM; in the data set with red blood cell membranes (Time 270 min) it was 4.898 mM; in the data set on red blood cell membranes (Time 1080 min) it was 5.217 mM; with red blood cell membranes (Time 1440 min), 5.058 mM.
